Reference: PubChem BioAssay (NCI)
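GI50 = concentration required for 50% inhibition of growth. TGI: total growth inhibition.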

How the values were obtained:
Assay in all cases: growth of human tumour cells (NCI), 384-well format
786-0 renal = system: 786-0 renal
A498 renal = system: A498 renal
A549 NSCLC = system: A549 NSCLC
ACHN renal = system: ACHN renal
BT-549 breast = system: BT-549 breast
CAKI-1 renal = system: CAKI-1 renal
COLO 205 colon = system: COLO 205 colon
DU-145 prostate = system: DU-145 prostate
EKVX NSCLC = system: EKVX NSCLC
HCC-2998 colon = system: HCC-2998 colon
HCT-116 colon = system: HCT-116 colon
HCT-15 colon = system: HCT-15 colon
HL-60(TB) leukemia = system: HL-60(TB) leukemia
HOP-62 NSCLC = system: HOP-62 NSCLC
HOP-92 NSCLC = system: HOP-92 NSCLC
HS 578T breast = system: HS 578T breast
HT29 colon = system: HT29 colon
IGROV1 ovarian = system: IGROV1 ovarian
KM12 colon = system: KM12 colon
LOX IMVI melanoma = system: LOX IMVI melanoma
M14 melanoma = system: M14 melanoma
MALME-3M melanoma = system: MALME-3M melanoma
MCF7 breast = system: MCF7 breast
MDA-MB-231 breast = system: MDA-MB-231 breast
MDA-MB-435 melanoma = system: MDA-MB-435 melanoma
MDA-MB-468 breast = system: MDA-MB-468 breast
MOLT-4 leukemia = system: MOLT-4 leukemia
NCI-H226 lung = system: NCI-H226 lung
NCI-H23 lung = system: NCI-H23 lung
NCI-H322M lung = system: NCI-H322M lung
NCI-H460 NSCLC = system: NCI-H460 NSCLC
NCI-H522 lung = system: NCI-H522 lung
NCI/ADR-RES ovarian = system: NCI/ADR-RES ovarian
OVCAR-3 ovarian = system: OVCAR-3 ovarian
OVCAR-4 ovarian = system: OVCAR-4 ovarian
OVCAR-5 ovarian = system: OVCAR-5 ovarian
OVCAR-8 ovarian = system: OVCAR-8 ovarian
PC-3 prostate = system: PC-3 prostate
RPMI-8226 leukemia = system: RPMI-8226 leukemia
RXF 393 renal = system: RXF 393 renal
SF-268 CNS = system: SF-268 CNS
SF-295 CNS = system: SF-295 CNS
SF-539 CNS = system: SF-539 CNS
SK-MEL-28 melanoma = system: SK-MEL-28 melanoma
SK-MEL-5 melanoma = system: SK-MEL-5 melanoma
SK-OV-3 ovarian = system: SK-OV-3 ovarian
SN12C renal = system: SN12C renal
SNB-19 CNS = system: SNB-19 CNS
SNB-75 CNS = system: SNB-75 CNS
SR leukemia = system: SR leukemia
SW-620 colon = system: SW-620 colon
TK-10 renal = system: TK-10 renal
U251 glioblastoma = system: U251 glioblastoma
UACC-257 melanoma = system: UACC-257 melanoma
UACC-62 melanoma = system: UACC-62 melanoma
UO-31 renal = system: UO-31 renal

## O=C(c1ccc(OCCN2CCCCC2)cc1)c1c(-c2ccc(O)cc2)sc2cc(O)ccc12
786-0 renal
  GI50: 1.55 µM
  TGI: 2.94 µM
A498 renal
  GI50: 2.11 µM
  TGI: 4.43 µM
A549 NSCLC
  GI50: 4.42 µM
  TGI: 15.4 µM
ACHN renal
  GI50: 4.02 µM
  TGI: 12.9 µM
BT-549 breast
  GI50: 1.59 µM
  TGI: 3.74 µM
CAKI-1 renal
  GI50: 2.15 µM
  TGI: 5.11 µM
COLO 205 colon
  GI50: 17.1 µM
  TGI: 30.9 µM
DU-145 prostate
  GI50: 10.8 µM
  TGI: 22.7 µM
EKVX NSCLC
  GI50: 6.23 µM
  TGI: 18.5 µM
HCC-2998 colon
  GI50: 3.71 µM
  TGI: 12.3 µM
HCT-116 colon
  GI50: 3.39 µM
  TGI: 12.3 µM
HCT-15 colon
  GI50: 1.26 µM
  TGI: 3.51 µM
HL-60(TB) leukemia
  GI50: 1.83 µM
  TGI: 3.25 µM
HOP-62 NSCLC
  GI50: 3.31 µM
  TGI: 10.8 µM
HOP-92 NSCLC
  GI50: 2.04 µM
  TGI: 5.03 µM
HS 578T breast
  GI50: 2.5 µM
  TGI: 6.72 µM
HT29 colon
  GI50: 5.05 µM
  TGI: 16.8 µM
IGROV1 ovarian
  GI50: 2.75 µM
  TGI: 7.87 µM
KM12 colon
  GI50: 4.09 µM
  TGI: 12.7 µM
LOX IMVI melanoma
  GI50: 1.84 µM
  TGI: 3.43 µM
M14 melanoma
  GI50: 2.09 µM
  TGI: 3.88 µM
MALME-3M melanoma
  GI50: 1.48 µM
  TGI: 2.83 µM
MCF7 breast
  TGI: 2.78 µM
MDA-MB-231 breast
  GI50: 2.2 µM
  TGI: 4.97 µM
MDA-MB-435 melanoma
  GI50: 4.38 µM
  TGI: 10.9 µM
MDA-MB-468 breast
  GI50: 3.08 µM
  TGI: 7.65 µM
MOLT-4 leukemia
  GI50: 1.8 µM
  TGI: 4.59 µM
NCI-H226 lung
  GI50: 3.27 µM
  TGI: 11.2 µM
NCI-H23 lung
  GI50: 3.46 µM
  TGI: 12.7 µM
NCI-H322M lung
  GI50: 1.86 µM
  TGI: 4.78 µM
NCI-H460 NSCLC
  GI50: 8.87 µM
  TGI: 21 µM
NCI-H522 lung
  GI50: 7.17 µM
  TGI: 19.7 µM
NCI/ADR-RES ovarian
  GI50: 4.4 µM
  TGI: 15.1 µM
OVCAR-3 ovarian
  GI50: 4.33 µM
  TGI: 16.6 µM
OVCAR-4 ovarian
  GI50: 8.87 µM
  TGI: 20.6 µM
OVCAR-5 ovarian
  GI50: 5.94 µM
  TGI: 18.2 µM
OVCAR-8 ovarian
  GI50: 4.04 µM
  TGI: 14 µM
PC-3 prostate
  GI50: 2.17 µM
  TGI: 4.97 µM
RPMI-8226 leukemia
  GI50: 2.78 µM
  TGI: 5.32 µM
RXF 393 renal
  GI50: 2.29 µM
  TGI: 5.12 µM
SF-268 CNS
  GI50: 5.08 µM
  TGI: 17.2 µM
SF-295 CNS
  GI50: 12.8 µM
  TGI: 25.5 µM
SF-539 CNS
  GI50: 3.27 µM
  TGI: 11.3 µM
SK-MEL-28 melanoma
  GI50: 2.54 µM
  TGI: 7.63 µM
SK-MEL-5 melanoma
  GI50: 1.49 µM
  TGI: 3.21 µM
SK-OV-3 ovarian
  GI50: 9.94 µM
  TGI: 21.6 µM
SN12C renal
  GI50: 12.6 µM
  TGI: 25.2 µM
SNB-19 CNS
  GI50: 11.7 µM
  TGI: 24.1 µM
SNB-75 CNS
  GI50: 2.69 µM
  TGI: 8.46 µM
SR leukemia
  GI50: 3.15 µM
  TGI: 4.65 µM
SW-620 colon
  GI50: 12.5 µM
  TGI: 25.1 µM
TK-10 renal
  GI50: 9.63 µM
  TGI: 21.4 µM
U251 glioblastoma
  GI50: 4.07 µM
  TGI: 13.4 µM
UACC-257 melanoma
  GI50: 1.96 µM
  TGI: 3.61 µM
UACC-62 melanoma
  GI50: 5.22 µM
  TGI: 17.3 µM
UO-31 renal
  GI50: 2.59 µM
  TGI: 7.34 µM
